≈ marks a conversion by molar mass, not a printed value. Read-outs that look alike come from different tables or passages of the source.
Key:
Assay type in all cases: cell-based
Streptococcus pneumoniae = assay: MIC by two-fold serial agar dilution, Sensitivity Disk agar-N (Kitasato isolates); details: Streptococcus pneumoniae; for MIC50: read-out: MIC50; for MIC90: read-out: MIC90
E. coli = assay: microbe, parasite or virus in culture; details: Escherichia coli
P. aeruginosa = assay: MIC by two-fold serial agar dilution, quinolone-resistant strains; details: Pseudomonas aeruginosa
Streptococcus pyogenes = assay: MIC by NCCLS broth microdilution, 1100 Japanese clinical isolates 1997-1998
Escherichia coli = assay: as above; details: for MIC50 / MIC90: Escherichia coli
Klebsiella oxytoca = assay: as above; details: Klebsiella oxytoca (n=40)
Shigella spp. = assay: as above; details: Shigella spp. (n=34)
Proteus mirabilis = assay: as above; details: Proteus mirabilis (n=30)
[1] = test system: Gram positive anaerobic and facultative anaerobic pathogens; assay: microbe, parasite or virus in culture
[2] = Escherichia coli ciprofloxacin susceptible (n=37)

Question: For `N[C@@H]1[C@H]2CN(c3nc4c(cc3F)c(=O)c(C(=O)O)cn4-c3ccc(F)cc3F)C[C@@H]12` [Trovafloxacin, trovafloxacin], which MIC50 (Streptococcus pneumoniae; Erythromycin-resistant (37)) is on record?
Answer: 0.063 µg/mL (≈ 0.151 µM)

Question: And the MIC90 (Streptococcus pneumoniae; Erythromycin-resistant (37))?
Answer: 0.25 µg/mL (≈ 0.6 µM)

Question: What about the MIC50 (Streptococcus pneumoniae; Minocycline-resistant (37)) of the same compound?
Answer: 0.063 µg/mL (≈ 0.151 µM)

Question: And the MIC90 (Streptococcus pneumoniae; Minocycline-resistant (37))?
Answer: 0.25 µg/mL (≈ 0.6 µM)

Question: What about the MIC50 (Streptococcus pneumoniae; Penicillin-resistant (19)) of the same compound?
Answer: 0.063 µg/mL (≈ 0.151 µM)

Question: What about the MIC90 (Streptococcus pneumoniae; Penicillin-resistant (19)) of the same compound?
Answer: 0.25 µg/mL (≈ 0.6 µM)

Question: What about the MIC50 (E. coli; E. coli (13 strains), quinolone-resistant, read-out: MIC50) of the same compound?
Answer: 0.063 µg/mL (≈ 0.151 µM)

Question: What about the MIC90 (E. coli; E. coli (13 strains), quinolone-resistant, read-out: MIC90) of the same compound?
Answer: 0.5 µg/mL (≈ 1.2 µM)

Question: And the MIC (E. coli; E. coli KU1029, mutant type SP (spontaneous mutant in the DNA gyrase))?
Answer: 0.063 µg/mL (≈ 0.151 µM)

Question: And the MIC (E. coli; E. coli KU1030, mutant type SP)?
Answer: 0.063 µg/mL (≈ 0.151 µM)

Question: What about the MIC (E. coli; E. coli KU1031, mutant type SP) of the same compound?
Answer: 0.063 µg/mL (≈ 0.151 µM)

Question: And the MIC (E. coli; E. coli KU1032, mutant type SP)?
Answer: 0.25 µg/mL (≈ 0.6 µM)

Question: And the MIC (E. coli; E. coli KU1033, mutant type SP)?
Answer: 0.031 µg/mL (≈ 0.0745 µM)

Question: What about the MIC (E. coli; E. coli KU1034, mutant type GA (DNA gyrase A)) of the same compound?
Answer: 0.5 µg/mL (≈ 1.2 µM)

Question: And the MIC (E. coli; E. coli KU1035, mutant type GA (DNA gyrase A))?
Answer: 0.5 µg/mL (≈ 1.2 µM)

Question: And the MIC (E. coli; E. coli KU1036, mutant type GB (DNA gyrase B))?
Answer: 0.063 µg/mL (≈ 0.151 µM)

Question: And the MIC (E. coli; E. coli KU1038, mutant type SP)?
Answer: 0.063 µg/mL (≈ 0.151 µM)

Question: And the MIC (E. coli; E. coli KU1039, mutant type SP)?
Answer: 0.25 µg/mL (≈ 0.6 µM)

Question: What about the MIC (E. coli; E. coli KU1040, mutant type SP) of the same compound?
Answer: ≤ 0.008 µg/mL

Question: And the MIC (E. coli; E. coli KU1041, mutant type SP)?
Answer: 0.5 µg/mL (≈ 1.2 µM)

Question: What about the MIC (E. coli; E. coli KU1042, mutant type SP) of the same compound?
Answer: 0.125 µg/mL (≈ 0.3 µM)

Question: And the MIC (P. aeruginosa)?
Answer: 1 µg/mL (≈ 2.4 µM)

Question: What about the MIC50 (Streptococcus pyogenes; Streptococcus pyogenes) of the same compound?
Answer: 0.125 µg/mL (≈ 0.3 µM)

Question: And the MIC90 (Streptococcus pyogenes; Streptococcus pyogenes (n=51))?
Answer: 0.5 µg/mL (≈ 1.2 µM)

Question: And the “MIC Range” value (Streptococcus pyogenes; Streptococcus pyogenes (n=51))?
Answer: 0.063 to 0.5 µg/mL

Question: And the “MIC Range” value (Escherichia coli; [2])?
Answer: ≤0.008 to 0.25 µg/mL

Question: What about the MIC50 (Escherichia coli; Escherichia coli ciprofloxacin resistant (n=5)) of the same compound?
Answer: 64 µg/mL (≈ 154 µM)

Question: What about the MIC90 (Escherichia coli; Escherichia coli ciprofloxacin resistant (n=5), values marked *: MIC80 value) of the same compound?
Answer: 64 µg/mL (≈ 154 µM)

Question: What about the MIC50 (Escherichia coli; [2]) of the same compound?
Answer: 0.016 µg/mL (≈ 0.0384 µM)

Question: What about the MIC90 (Escherichia coli; [2]) of the same compound?
Answer: 0.032 µg/mL (≈ 0.0769 µM)

Question: What about the MIC50 (Klebsiella oxytoca) of the same compound?
Answer: 0.032 µg/mL (≈ 0.0769 µM)

Question: And the MIC90 (Klebsiella oxytoca)?
Answer: 8 µg/mL (≈ 19.2 µM)

Question: And the “MIC Range” value (Klebsiella oxytoca)?
Answer: ≤0.008 to 32 µg/mL

Question: What about the MIC50 (Shigella spp.) of the same compound?
Answer: ≤ 0.008 µg/mL

Question: What about the MIC90 (Shigella spp.) of the same compound?
Answer: 0.032 µg/mL (≈ 0.0769 µM)

Question: And the “MIC Range” value (Shigella spp.)?
Answer: ≤0.008 to 0.032 µg/mL

Question: What about the “MIC Range” value (Proteus mirabilis) of the same compound?
Answer: 0.063 to 16 µg/mL

Question: What about the MIC50 (Proteus mirabilis; read-out: MIC50) of the same compound?
Answer: 0.25 µg/mL (≈ 0.6 µM)

Question: What about the MIC90 (Proteus mirabilis; read-out: MIC90) of the same compound?
Answer: 0.5 µg/mL (≈ 1.2 µM)

Question: And the MIC ([1]; Bifidobacterium adolescentis, ATCC15703)?
Answer: 1 µg/mL (≈ 2.4 µM)

Question: What about the MIC ([1]; Bifidobacterium bifidum, JCM1255) of the same compound?
Answer: 4 µg/mL (≈ 9.61 µM)

Question: And the MIC ([1]; Bifidobacterium breve, ATCC15700)?
Answer: 4 µg/mL (≈ 9.61 µM)

Question: What about the MIC ([1]; Bifidobacterium longum, ATCC15707) of the same compound?
Answer: 4 µg/mL (≈ 9.61 µM)

Question: What about the MIC ([1]; Bifidobacterium pseudolongum, ATCC25526) of the same compound?
Answer: 4 µg/mL (≈ 9.61 µM)

Question: And the MIC ([1]; Clostridioides difficile)?
Answer: 1 µg/mL (≈ 2.4 µM)

Question: And the MIC ([1]; Clostridium perfringens, ATCC13124)?
Answer: 0.125 µg/mL (≈ 0.3 µM)

Question: What about the MIC ([1]; Clostridium septicum, ATCC12464) of the same compound?
Answer: 0.125 µg/mL (≈ 0.3 µM)

Question: And the MIC ([1]; Cutibacterium acnes, ATCC11828)?
Answer: 1 µg/mL (≈ 2.4 µM)

Question: What about the MIC ([1]; Eggerthella lenta, ATCC25559) of the same compound?
Answer: 0.5 µg/mL (≈ 1.2 µM)

Question: And the MIC ([1]; Finegoldia magna, ATCC29328)?
Answer: 0.125 µg/mL (≈ 0.3 µM)

Question: And the MIC ([1]; Gemella morbillorum, ATCC27824)?
Answer: 0.25 µg/mL (≈ 0.6 µM)

Question: And the MIC ([1]; Lacticaseibacillus casei, JCM1134)?
Answer: 0.06 µg/mL (≈ 0.144 µM)

Question: And the MIC ([1]; Lactiplantibacillus plantarum, JCM1149)?
Answer: 4 µg/mL (≈ 9.61 µM)

Question: And the MIC ([1]; Lactobacillus acidophilus, JCM1132)?
Answer: 4 µg/mL (≈ 9.61 µM)

Question: What about the MIC ([1]; Levilactobacillus brevis, JCM1059) of the same compound?
Answer: 1 µg/mL (≈ 2.4 µM)

Question: And the MIC ([1]; Ligilactobacillus salivarius, JCM1231)?
Answer: 0.125 µg/mL (≈ 0.3 µM)

Question: And the MIC ([1]; Limosilactobacillus reuteri, JCM1112)?
Answer: 1 µg/mL (≈ 2.4 µM)

Question: And the MIC ([1]; Limosilactobacillus reuteri, JCM1173)?
Answer: 1 µg/mL (≈ 2.4 µM)

Question: And the MIC ([1]; Paraclostridium sordellii, ATCC9714)?
Answer: 0.25 µg/mL (≈ 0.6 µM)

Question: What about the MIC ([1]; Parvimonas micra) of the same compound?
Answer: 0.06 µg/mL (≈ 0.144 µM)

Question: And the MIC ([1]; Peptoniphilus asaccharolyticus)?
Answer: 0.5 µg/mL (≈ 1.2 µM)

Question: What about the MIC ([1]; Peptoniphilus indolicus) of the same compound?
Answer: 0.125 µg/mL (≈ 0.3 µM)

Question: And the MIC ([1]; Peptostreptococcus anaerobius, ATCC27337)?
Answer: 0.06 µg/mL (≈ 0.144 µM)

Question: What about the MIC ([1]; Schaalia odontolytica) of the same compound?
Answer: 4 µg/mL (≈ 9.61 µM)

Question: What about the MIC ([1]; Staphylococcus saccharolyticus, ATCC14953) of the same compound?
Answer: 0.06 µg/mL (≈ 0.144 µM)

Question: What about the MIC ([1]; Streptococcus constellatus, ATCC27823) of the same compound?
Answer: 0.125 µg/mL (≈ 0.3 µM)

Question: What about the MIC ([1]; Streptococcus intermedius, ATCC27335) of the same compound?
Answer: 0.125 µg/mL (≈ 0.3 µM)

Question: What about the MIC ([1]; Thomasclavelia ramosa, ATCC25582) of the same compound?
Answer: 0.5 µg/mL (≈ 1.2 µM)

— EP1561465A2, “Methods of use of fluoroquinolone compounds against bacteria” (LG Life Sciences, Ltd., priority 1999, dated 2001)
